# According to US10457709B2, “Antimicrobial peptides, their variants and uses” (priority 2015, dated 2019):
# Like-named read-outs stand apart in the source and are kept apart here. Square brackets hold non-standard residues; d marks the D form. Peptide text beside a SMILES is read from it.
# Experiments:
# [1] = system: C. parapsilosis clinical strains; assay: MIC, clinical yeast strains; assay type: cell-based, Candida parapsilosis; set-up: unit: µg/ml
# Method in brief: (§1)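 MIC recorded as the lowest peptide level, within 0.125–128 μg/ml, that left no visible growth after 20–24 h at 37° C. Inoculum was 5.0×10^5 cfu/ml of clinical isolates. Medium was potato dextrose broth for yeasts and Mueller Hinton broth for bacteria, in a broth microdilution format.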
# [2] = system: Klebsiella pneumoniae clinical strains; assay type: cell-based; conditions: microdilution, Muller Hinton broth-cation adjusted, 0.02% BSA, 0.2% acetic acid
# Method in brief: as §1
# [3] = system: Acinetobacter johnsonii clinical strains; assay type: cell-based; conditions: Acinetobacter johnsonii clinical strain 1; microdilution, Muller Hinton broth-cation adjusted, 0.02% BSA, 0.2% acetic acid
# Method in brief: as §1
# [4] = system: Pseudomonas aeruginosa clinical strains; assay type: cell-based; conditions: microdilution, Muller Hinton broth-cation adjusted, 0.02% BSA, 0.2% acetic acid
# Method in brief: as §1
# [5] = system: Escherichia coli clinical strains; assay type: cell-based; conditions: for Minimum inhibitory concentration: microdilution, Muller Hinton broth-cation adjusted, 0.02% BSA, 0.2% acetic acid
# Method in brief: as §1
# [6] = system: all the bacteria and yeasts tested; assay type: cell-based
# Method in brief: as §1
# [7] = system: C. quillermondiae clinical strains; assay: MIC, clinical yeast strains; assay type: cell-based, Candida quillermondiae; set-up: unit: μg/ml; conditions: C. quillermondiae clinical yeast strain 1
# Method in brief: as §1
# [8] = system: Candida albicans clinical strains; assay: MIC, clinical yeast strains; assay type: cell-based; set-up: unit: μg/ml
# Method in brief: as §1
# [9] = system: Staphylococcus aureus clinical strains; assay type: cell-based; set-up: Minimum inhibitory concentration: unit: μg/ml; conditions: microdilution, Muller Hinton broth-cation adjusted, 0.02% BSA, 0.2% acetic acid
# Method in brief: as §1
# [10] = system: Streptococcus pneumoniae clinical strains; assay type: cell-based; set-up: Minimum inhibitory concentration: unit: μg/ml; conditions: microdilution, Muller Hinton broth-cation adjusted, 0.02% BSA, 0.2% acetic acid
# Method in brief: as §1
# [11] = system: Enterobacter cloacae clinical strains; assay type: cell-based; set-up: Minimum inhibitory concentration: unit: μg/ml; conditions: microdilution, Muller Hinton broth-cation adjusted, 0.02% BSA, 0.2% acetic acid
# Method in brief: as §1
# [12] = system: Acinetobacter baumannii clinical strains; assay type: cell-based; set-up: Minimum inhibitory concentration: unit: μg/ml; conditions: microdilution, Muller Hinton broth-cation adjusted, 0.02% BSA, 0.2% acetic acid
# Method in brief: as §1
# [13] = system: Serratia marcescens clinical strains; assay type: cell-based; set-up: Minimum inhibitory concentration: unit: μg/ml; conditions: microdilution, Muller Hinton broth-cation adjusted, 0.02% BSA, 0.2% acetic acid
# Method in brief: as §1
# [14] = system: Proteus mirabilis clinical strains; assay type: cell-based; set-up: Minimum inhibitory concentration: unit: μg/ml; conditions: microdilution, Muller Hinton broth-cation adjusted, 0.02% BSA, 0.2% acetic acid
# Method in brief: as §1
# [15] = system: C. glabrata clinical strains; assay: MIC, clinical yeast strains; assay type: cell-based, Candida glabrata; set-up: unit: µg/ml
# Method in brief: as §1
smiles,measurement,setting,value
CC(C)C[C@@H](NC(=O)[C@H](N)CCCNC(=N)N)C(=O)N[C@H](CCCCN)C(=O)N[C@H](CCCNC(=N)N)C(=O)N[C@H](Cc1c[nH]c2ccccc12)C(=O)N[C@H](CCCNC(=N)N)C(=O)N[C@H](CC(C)C)C(=O)N[C@H](Cc1ccccc1)C(=O)N[C@H](CCCNC(=N)N)C(=O)N[C@H](CCCCN)C(=O)N[C@H](CCCNC(=N)N)C(=O)O [Chain306D] (H-[dR][dL][dK][dR][dW][dR][dL][dF][dR][dK][dR]-OH),Minimum inhibitory concentration,[1]; C. parapsilosis clinical yeast strain 1,8
same,Minimum inhibitory concentration,[1]; C. parapsilosis clinical yeast strain 2,16
same,Minimum inhibitory concentration,[1]; C. parapsilosis clinical yeast strain 3,16
same,Minimum inhibitory concentration,[1]; C. parapsilosis clinical yeast strain 4,4
same,Minimum inhibitory concentration,[2]; Klebsiella pneumoniae clinical strain 1,128
same,Minimum inhibitory concentration,[2]; Klebsiella pneumoniae clinical strain 2,>128
same,Minimum inhibitory concentration,[2]; Klebsiella pneumoniae clinical strain 3,>128
same,Minimum inhibitory concentration,[2]; Klebsiella pneumoniae clinical strain 4,64
same,Minimum inhibitory concentration,[2]; Klebsiella pneumoniae clinical strain 5,64
same,Minimum inhibitory concentration,[3],16
same,Minimum inhibitory concentration,[4]; Pseudomonas aeruginosa clinical strain 1,128
same,Minimum inhibitory concentration,[4]; Pseudomonas aeruginosa clinical strain 2,>128
same,Minimum inhibitory concentration,[4]; Pseudomonas aeruginosa clinical strain 3,128
same,Minimum inhibitory concentration,[4]; Pseudomonas aeruginosa clinical strain 4,>128
same,Minimum inhibitory concentration,[4]; Pseudomonas aeruginosa clinical strain 5,128
same,Minimum inhibitory concentration,[5]; Escherichia coli clinical strain 1,1
same,Minimum inhibitory concentration,[5]; Escherichia coli clinical strain 2,2
same,Minimum inhibitory concentration,[5]; Escherichia coli clinical strain 3,2
same,Minimum inhibitory concentration,[5]; Escherichia coli clinical strain 4,2
same,Minimum inhibitory concentration,[5]; Escherichia coli clinical strain 5,2
same,MIC against E. coli,[5]; clinical strains,1 µg/mL
same,MIC against the rest of the bacterial strains,[6],> 32 µg/mL
same,Minimum inhibitory concentration,[7],4
same,Minimum inhibitory concentration,[8]; Candida albicans clinical yeast strain 1,16
same,Minimum inhibitory concentration,[8]; Candida albicans clinical yeast strain 2,8
same,Minimum inhibitory concentration,[8]; Candida albicans clinical yeast strain 3,8
same,Minimum inhibitory concentration,[8]; Candida albicans clinical yeast strain 4,16
same,Minimum inhibitory concentration,[8]; Candida albicans clinical yeast strain 5,16
same,Minimum inhibitory concentration,[9]; Staphylococcus aureus clinical strain 1,16
same,Minimum inhibitory concentration,[9]; Staphylococcus aureus clinical strain 2,32
same,Minimum inhibitory concentration,[9]; Staphylococcus aureus clinical strain 3,32
same,Minimum inhibitory concentration,[9]; Staphylococcus aureus clinical strain 4,16
same,Minimum inhibitory concentration,[9]; Staphylococcus aureus clinical strain 5,8
same,Minimum inhibitory concentration,[10]; Streptococcus pneumoniae clinical strain 1,64
same,Minimum inhibitory concentration,[10]; Streptococcus pneumoniae clinical strain 2,64
same,Minimum inhibitory concentration,[10]; Streptococcus pneumoniae clinical strain 3,64
same,Minimum inhibitory concentration,[10]; Streptococcus pneumoniae clinical strain 4,128
same,Minimum inhibitory concentration,[10]; Streptococcus pneumoniae clinical strain 5,64
same,Minimum inhibitory concentration,[11]; Enterobacter cloacae clinical strain 1,64
same,Minimum inhibitory concentration,[11]; Enterobacter cloacae clinical strain 2,64
same,Minimum inhibitory concentration,[11]; Enterobacter cloacae clinical strain 3,32
same,Minimum inhibitory concentration,[11]; Enterobacter cloacae clinical strain 4,16
same,Minimum inhibitory concentration,[11]; Enterobacter cloacae clinical strain 5,16
same,Minimum inhibitory concentration,[12]; Acinetobacter baumannii clinical strain 1,16
same,Minimum inhibitory concentration,[12]; Acinetobacter baumannii clinical strain 2,32
same,Minimum inhibitory concentration,[12]; Acinetobacter baumannii clinical strain 3,16
same,Minimum inhibitory concentration,[12]; Acinetobacter baumannii clinical strain 4,16
same,Minimum inhibitory concentration,[12]; Acinetobacter baumannii clinical strain 5,8
same,Minimum inhibitory concentration,[13]; Serratia marcescens clinical strain 1,>128
same,Minimum inhibitory concentration,[13]; Serratia marcescens clinical strain 2,>128
same,Minimum inhibitory concentration,[13]; Serratia marcescens clinical strain 3,>128
same,Minimum inhibitory concentration,[13]; Serratia marcescens clinical strain 4,>128
same,Minimum inhibitory concentration,[13]; Serratia marcescens clinical strain 5,>128
same,Minimum inhibitory concentration,[14]; Proteus mirabilis clinical strain 1,>128
same,Minimum inhibitory concentration,[14]; Proteus mirabilis clinical strain 2,>128
same,Minimum inhibitory concentration,[14]; Proteus mirabilis clinical strain 3,>128
same,Minimum inhibitory concentration,[14]; Proteus mirabilis clinical strain 4,>128
same,Minimum inhibitory concentration,[14]; Proteus mirabilis clinical strain 5,>128
same,Minimum inhibitory concentration,[15]; C. glabrata clinical yeast strain 1,8
same,Minimum inhibitory concentration,[15]; C. glabrata clinical yeast strain 2,8
same,Minimum inhibitory concentration,[15]; C. glabrata clinical yeast strain 3,16
same,Minimum inhibitory concentration,[15]; C. glabrata clinical yeast strain 4,32
